Experimental data reported in ChEMBL document CHEMBL1159144, “Novel pyridazino[4,5-b][1,5]oxazepines and -thiazepines as 5-HT1A receptor ligands” (Bioorg Med Chem Lett, 1997).

What was measured:
[1] = biological target: T1, 5-hydroxytryptamine receptor 1A (Rattus norvegicus, UniProt P19327); assay: Binding affinity towards 5-hydroxytryptamine 1A receptor using receptor binding assay
T1 sequence (P19327 whole entry): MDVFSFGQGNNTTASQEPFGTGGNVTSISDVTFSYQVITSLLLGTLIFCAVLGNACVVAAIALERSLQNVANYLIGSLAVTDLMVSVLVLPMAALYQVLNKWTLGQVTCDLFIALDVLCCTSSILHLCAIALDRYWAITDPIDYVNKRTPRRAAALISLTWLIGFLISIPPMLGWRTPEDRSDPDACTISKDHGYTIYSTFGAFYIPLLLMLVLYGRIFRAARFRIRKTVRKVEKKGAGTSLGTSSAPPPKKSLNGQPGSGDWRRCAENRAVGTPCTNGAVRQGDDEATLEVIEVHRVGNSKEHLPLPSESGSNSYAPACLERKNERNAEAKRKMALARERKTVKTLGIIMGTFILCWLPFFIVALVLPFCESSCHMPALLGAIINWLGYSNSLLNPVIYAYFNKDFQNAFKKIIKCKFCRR

[2] = biological target: T2, Adrenergic receptor alpha-2 (Rattus norvegicus, UniProt P22086+P19328+P22909); assay: Binding affinity towards Alpha-2 adrenergic receptor; format: protein assay
T2 sequence (P22086 whole entry): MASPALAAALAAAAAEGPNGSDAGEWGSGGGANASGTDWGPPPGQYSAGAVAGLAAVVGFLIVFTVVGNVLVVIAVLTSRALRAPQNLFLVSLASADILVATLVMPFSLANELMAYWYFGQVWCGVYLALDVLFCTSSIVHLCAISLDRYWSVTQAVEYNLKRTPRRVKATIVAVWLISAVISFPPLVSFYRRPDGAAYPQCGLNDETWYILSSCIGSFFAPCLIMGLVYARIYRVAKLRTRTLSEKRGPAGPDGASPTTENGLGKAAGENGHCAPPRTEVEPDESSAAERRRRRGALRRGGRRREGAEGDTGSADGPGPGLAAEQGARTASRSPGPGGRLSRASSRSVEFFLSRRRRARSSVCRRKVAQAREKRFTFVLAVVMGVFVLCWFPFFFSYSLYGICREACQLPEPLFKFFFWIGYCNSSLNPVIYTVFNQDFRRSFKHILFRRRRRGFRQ
T2 sequence (P19328 whole entry): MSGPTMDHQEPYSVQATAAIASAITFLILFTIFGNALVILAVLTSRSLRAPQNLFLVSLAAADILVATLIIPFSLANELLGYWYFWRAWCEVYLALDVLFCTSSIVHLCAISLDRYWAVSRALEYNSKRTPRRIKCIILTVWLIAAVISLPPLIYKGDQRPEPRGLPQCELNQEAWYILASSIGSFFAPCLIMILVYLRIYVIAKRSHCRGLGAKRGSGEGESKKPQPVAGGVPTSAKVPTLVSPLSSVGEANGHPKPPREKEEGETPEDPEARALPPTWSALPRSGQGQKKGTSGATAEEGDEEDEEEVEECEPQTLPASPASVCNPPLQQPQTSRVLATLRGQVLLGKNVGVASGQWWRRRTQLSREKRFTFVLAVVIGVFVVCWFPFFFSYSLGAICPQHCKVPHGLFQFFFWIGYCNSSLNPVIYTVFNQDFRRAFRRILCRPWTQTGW
T2 sequence (P22909 whole entry): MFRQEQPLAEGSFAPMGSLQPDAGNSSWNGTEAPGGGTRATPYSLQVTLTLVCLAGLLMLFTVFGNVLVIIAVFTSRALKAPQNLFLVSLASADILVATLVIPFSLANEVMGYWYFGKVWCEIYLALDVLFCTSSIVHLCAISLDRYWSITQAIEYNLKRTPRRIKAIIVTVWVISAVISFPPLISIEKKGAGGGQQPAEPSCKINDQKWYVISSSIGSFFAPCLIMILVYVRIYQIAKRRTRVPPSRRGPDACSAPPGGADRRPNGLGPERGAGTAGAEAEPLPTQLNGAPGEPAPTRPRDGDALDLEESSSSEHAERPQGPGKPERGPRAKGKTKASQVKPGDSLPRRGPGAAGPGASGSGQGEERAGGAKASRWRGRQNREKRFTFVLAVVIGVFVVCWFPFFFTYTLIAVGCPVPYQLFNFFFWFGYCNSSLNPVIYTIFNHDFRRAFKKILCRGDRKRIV

[3] = biological target: T3, Adrenergic receptor alpha-1 (Rattus norvegicus, UniProt P15823+P23944+P43140); assay: Binding affinity towards Alpha-1 adrenergic receptor; format: protein assay
T3 sequence (P15823 whole entry): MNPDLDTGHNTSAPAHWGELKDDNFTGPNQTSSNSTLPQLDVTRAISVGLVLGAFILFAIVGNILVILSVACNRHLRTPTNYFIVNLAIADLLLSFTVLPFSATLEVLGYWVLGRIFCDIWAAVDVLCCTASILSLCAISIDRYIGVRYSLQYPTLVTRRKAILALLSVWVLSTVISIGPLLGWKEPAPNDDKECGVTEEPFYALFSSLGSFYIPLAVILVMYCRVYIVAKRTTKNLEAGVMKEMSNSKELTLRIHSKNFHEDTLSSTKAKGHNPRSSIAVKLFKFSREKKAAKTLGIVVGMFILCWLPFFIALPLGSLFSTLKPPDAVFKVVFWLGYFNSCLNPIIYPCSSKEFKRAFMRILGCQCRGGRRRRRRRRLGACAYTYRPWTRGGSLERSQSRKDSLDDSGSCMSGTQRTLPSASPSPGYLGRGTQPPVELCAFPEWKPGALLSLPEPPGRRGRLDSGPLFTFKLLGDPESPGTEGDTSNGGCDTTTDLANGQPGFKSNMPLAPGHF
T3 sequence (P23944 whole entry): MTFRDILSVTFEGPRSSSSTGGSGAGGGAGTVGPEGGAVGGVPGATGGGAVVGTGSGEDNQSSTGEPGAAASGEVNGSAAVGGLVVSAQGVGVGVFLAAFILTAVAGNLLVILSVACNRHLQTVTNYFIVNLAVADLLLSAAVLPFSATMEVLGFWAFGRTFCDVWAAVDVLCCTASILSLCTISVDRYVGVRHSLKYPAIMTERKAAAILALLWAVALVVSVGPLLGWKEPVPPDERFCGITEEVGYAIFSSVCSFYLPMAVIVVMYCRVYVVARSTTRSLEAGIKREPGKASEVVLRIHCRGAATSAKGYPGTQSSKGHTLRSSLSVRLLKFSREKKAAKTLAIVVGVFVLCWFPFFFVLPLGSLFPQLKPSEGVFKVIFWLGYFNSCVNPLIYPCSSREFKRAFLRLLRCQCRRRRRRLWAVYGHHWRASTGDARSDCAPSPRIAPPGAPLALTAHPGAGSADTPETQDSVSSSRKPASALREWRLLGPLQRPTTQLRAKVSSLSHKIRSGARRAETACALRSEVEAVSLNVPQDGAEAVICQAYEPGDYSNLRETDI
T3 sequence (P43140 whole entry): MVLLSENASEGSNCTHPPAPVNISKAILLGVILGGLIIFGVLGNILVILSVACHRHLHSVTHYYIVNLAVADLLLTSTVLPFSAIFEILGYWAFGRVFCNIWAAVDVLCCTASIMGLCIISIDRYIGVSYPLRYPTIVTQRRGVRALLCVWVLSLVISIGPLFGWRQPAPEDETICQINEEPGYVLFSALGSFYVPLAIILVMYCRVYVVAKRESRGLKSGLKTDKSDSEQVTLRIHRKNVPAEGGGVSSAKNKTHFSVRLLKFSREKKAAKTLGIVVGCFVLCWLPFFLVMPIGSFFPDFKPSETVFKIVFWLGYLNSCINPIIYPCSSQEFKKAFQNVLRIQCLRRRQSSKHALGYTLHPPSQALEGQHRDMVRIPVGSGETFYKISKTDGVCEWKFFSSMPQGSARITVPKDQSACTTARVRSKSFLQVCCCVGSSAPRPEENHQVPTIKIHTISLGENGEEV

Work on COc1ccccc1OCC(O)CN1CCN(CC(=O)N2CCCOc3c2cnn(C)c3=O)CC1 (stereo unspecified) yielded an IC50 [1] of over 1000 nM.

With COc1ccccc1OCCNCCC(=O)N1CCCOc2c1cnn(C)c2=O the IC50 [2] was 1.8 µM, the IC50 [1] was 19.5 nM and the IC50 [3] was 1.7 µM.

For Cn1ncc2c(c1=O)OCCCN2C(=O)CNCCOc1ccccc1, the IC50 [1] was 230 nM.

Work on COc1ccccc1OCCNCCCC(=O)N1CCCSc2c1cnn(C)c2=O yielded an IC50 [2] of 0.86 µM, an IC50 [1] of 9.2 nM and an IC50 [3] of 0.93 µM.

With COc1ccccc1OCCN(CCC(=O)N1CCCSc2c1cnn(C)c2=O)Cc1ccccc1 the IC50 [1] was over 1000 nM.

With COc1ccccc1OCC(O)CN1CCN(CCC(=O)N2CCCOc3c2cnn(C)c3=O)CC1 (stereo unspecified) the IC50 [2] was 47 µM, the IC50 [1] was over 1000 nM and the IC50 [3] was over 10 µM.

Compound CCSc1c(N(C)C(=O)CCNCCOc2ccccc2OC)cnn(C)c1=O has an IC50 [1] of 32.7 nM.

With COc1ccccc1OCCNC(C)C(=O)N1CCCSc2c1cnn(C)c2=O (stereo unspecified) the IC50 [1] was over 1000 nM.

With COc1ccccc1OCCN(CCC(=O)N1CCCOc2c1cnn(C)c2=O)Cc1ccccc1 the IC50 [1] was 1000 nM.

For COc1ccccc1OCCNCC(=O)N1CCCSc2c1cnn(C)c2=O, the IC50 [2] was 3.1 µM, the IC50 [1] was 37 nM and the IC50 [3] was over 10 µM.

In the case of COc1ccccc1OCCN(C)CCCN1CCCSc2c1cnn(C)c2=O, the IC50 [1] is reported as over 1000 nM.

Compound COc1cccc(OCC(O)CN2CCN(CCC(=O)N3CCCSc4c3cnn(C)c4=O)CC2)c1 (stereo unspecified) has an IC50 [1] of 118 nM.

Compound COc1ccccc1OCCNCCC(=O)N1CCCSc2c1cnn(C)c2=O has an IC50 [2] of 0.27 µM, an IC50 [1] of 11.4 nM and an IC50 [3] of 1.7 µM.

Cn1ncc2c(c1=O)OCCCN2C(=O)CCNCCOc1ccccc1 showed an IC50 [2] of 0.54 µM, an IC50 [1] of 524 nM and an IC50 [3] of 8.9 µM.

For COc1ccccc1OCCNCCCC(=O)N1CCCOc2c1cnn(C)c2=O, the IC50 [2] was 3.9 µM, the IC50 [1] was 17.8 nM and the IC50 [3] was 0.69 µM.

Cn1ncc2c(c1=O)SCCCN2C(=O)CNCC1COc2ccccc2O1 (stereo unspecified) was tested, and the IC50 [2] was 2.33 µM, the IC50 [1] was 44.9 nM and the IC50 [3] was 19 µM.

COc1ccccc1OCCN(C)CCC(=O)N1CCCOc2c1cnn(C)c2=O showed an IC50 [2] of 9.5 µM, an IC50 [1] of 134 nM and an IC50 [3] of 16.1 µM.

COc1ccccc1OCCNC(C)C(=O)N1CCCOc2c1cnn(C)c2=O (stereo unspecified) showed an IC50 [1] of over 1000 nM.

Work on Cn1ncc2c(c1=O)OCCCN2C(=O)CNCC1COc2ccccc2O1 (stereo unspecified) yielded an IC50 [2] of 4.6 µM, an IC50 [1] of 299 nM and an IC50 [3] of over 10 µM.

Cn1ncc2c(c1=O)OCCCN2C(=O)CCNCCOc1cccc(Cl)c1 gave an IC50 [1] of 312 nM.

Work on COc1ccccc1OCCNCC(=O)N1CCCOc2c1cnn(C)c2=O yielded an IC50 [2] of 21 µM, an IC50 [1] of 163 nM and an IC50 [3] of 12.5 µM.

In the case of Cn1ncc2c(c1=O)SCCCN2C(=O)CCNCCOc1ccccc1, the IC50 [1] is reported as 150 nM.

COc1ccccc1N1CCN(CC(=O)N2CCCOc3c2cnn(C)c3=O)CC1 showed an IC50 [1] of over 1000 nM.

Compound Cn1ncc2c(c1=O)SCCCN2C(=O)CCNCCOc1cccc(Cl)c1 has an IC50 [1] of 181 nM.
